Experimental data taken from patent publication US7799804B2, “Therapeutic agents” (Astrazeneca AB, priority 2004, dated 2010).

Biological target: T1, CB1 receptor (Homo sapiens, UniProt P21554)
T1 construct: expressed in transfected cells
Assay: [35S]-GTPγS binding assay on membranes from cells stably transfected with the CB1 gene, inhibition of agonist CP55940 (EC80)
Format: biochemical
Conditions: half maximal inhibition of GTPγS binding in presence of EC80 concentration of CP55940; 30° C., 45 min

T1 sequence (P21554 whole entry): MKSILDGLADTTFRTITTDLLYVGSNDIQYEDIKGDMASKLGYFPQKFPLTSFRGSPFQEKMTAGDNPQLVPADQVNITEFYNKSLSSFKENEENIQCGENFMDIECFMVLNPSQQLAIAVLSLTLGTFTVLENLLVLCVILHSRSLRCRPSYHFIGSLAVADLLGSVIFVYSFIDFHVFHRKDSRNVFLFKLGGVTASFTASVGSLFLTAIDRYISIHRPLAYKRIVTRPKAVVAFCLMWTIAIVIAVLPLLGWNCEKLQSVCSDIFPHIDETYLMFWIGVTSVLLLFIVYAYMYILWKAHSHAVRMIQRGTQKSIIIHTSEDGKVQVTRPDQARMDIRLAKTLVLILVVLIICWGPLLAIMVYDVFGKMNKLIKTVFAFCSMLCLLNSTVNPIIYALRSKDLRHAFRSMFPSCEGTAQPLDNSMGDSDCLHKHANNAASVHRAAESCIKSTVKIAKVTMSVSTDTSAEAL

IC50: 28 nM
SMILES: CCS(=O)(=O)Oc1ccc(-n2c(-c3ccc(Cl)cc3Cl)nc(C(=O)NN3CCCCC3)c2C)cc1 [Example 2, Ethanesulfonic acid 4-[2-(2,4-dichlorophenyl)-5-methyl-4-(piperidin-1-ylcarbamoyl)-imidazol-1-yl]-phenyl ester]
